Some test systems named below: CCRF-CEM; HCT-15; HOP-62; Hs-578T; K562; M14; MCF7; MDA-N; NCI-H23; NCI-H460; OVCAR-8; RXF 393; SF-268; SF-539; SK-MEL-28; SK-OV-3; SN12C; UACC-62; HCC 2998; UO-31.
What all share (test): inhibition of tumour cell growth, NCI panel, 48 h

Here are results for eleven compounds from ChEMBL document CHEMBL1201862, “PubChem BioAssay data set” (2004).

Each structure is given as a SMILES string. “And” between values parts separate entries of the source, which are not always exact repeats. Equal entries are not always repeated.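 A five-concentration, 48-hour dose response in 96-well plates underlies each endpoint, interpolated linearly between surrounding concentrations. GI50 = concentration required for 50% inhibition of growth.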 The source made the active and inactive calls. Cut-off read from the data, not from the text of the source: active = GI50 up to about 1.1 µM and inactive = higher. Residues, ends and D or L forms follow the SMILES beside them. *: point of attachment. X38 = O=C(c1ccc(-c2ccc(Cl)cc2Cl)o1)* A value given as a limit tells only on which side of the number the result lay.

With `O=C(Nc1ccc(-c2cn3ccccc3n2)cc1)c1cc(Br)ccc1O`, the GI50 in the assay with CCRF-CEM is > 100 µM (inactive); in the assay on HCT-15 it was over 100 µM; in the assay with HOP-62, > 100 µM (inactive); with Hs-578T, > 100 µM (inactive); in the assay on K562, > 100 µM (inactive); with M14, > 100 µM (inactive). For the same compound, the GI50 in the assay with MCF7, in the assay on MDA-N, in the assay with NCI-H23, in the assay with NCI-H460, with OVCAR-8 and in the assay on RXF 393 was > 100 µM (inactive) in each case. Further, the GI50 in the assay on SF-268, in the assay with SF-539, in the assay on SK-MEL-28, in the assay with SK-OV-3, with SN12C and with UACC-62 was > 100 µM (inactive) each time.
As for `COc1cc2c(cc1OC)C1Cc3cc(OC)c(OC)cc3C(C2)N1C`, the GI50 in the assay on HCC 2998 was > 75 µM (inactive); in the assay with HCT-15 it was over 100 µM; with HOP-62 it was > 75 µM (inactive) and 44.3 µM (inactive); with Hs-578T it was > 75 µM (inactive); in the assay with K562, > 100 µM (inactive); in the assay on M14, > 100 µM (inactive). For the same compound, the GI50 is > 75 µM (inactive) in the assay with MCF7; 63.1 µM (inactive) with MDA-N; > 100 µM (inactive) and 54.7 µM (inactive) in the assay on NCI-H23; > 100 µM (inactive) in the assay with OVCAR-8; > 75 µM (inactive) in the assay with RXF 393; > 100 µM (inactive) with SF-268. Moreover, the GI50 was 20.8 µM (inactive) in the assay on SF-539; > 100 µM (inactive) with SK-MEL-28; > 75 µM (inactive) in the assay on SK-OV-3; > 100 µM (inactive) and 62.5 µM (inactive) in the assay with SN12C; 61.1 µM (inactive) in the assay on UACC-62.
On to `O=C1C/C(=N/c2ccc(Cl)cc2)C(c2ccccc2)N1c1ccccc1` (stereo unspecified), for which the GI50 with HCC 2998 is > 100 µM (inactive); with HCT-15, 5.92 µM; with HOP-62, 32.1 µM (inactive); in the assay with Hs-578T, 6.12 µM (inactive); in the assay on K562, 1.32 µM (inactive); in the assay with M14 it was 5.9 µM (inactive). Moreover, the GI50 in the assay with MCF7 was 10 µM (inactive); in the assay on MDA-N it was 2.5 µM (inactive); in the assay with NCI-H23, 10 µM (inactive); in the assay with NCI-H460, 29 µM (inactive); with RXF 393 it was 35 µM (inactive); in the assay on SF-268, 3.6 µM (inactive). Besides, the GI50 is 14 µM (inactive) in the assay with SF-539; 7.87 µM (inactive) with SK-MEL-28; 5.92 µM (inactive) with SK-OV-3; 23.9 µM (inactive) in the assay on SN12C; 1.43 µM (inactive) with UACC-62; 5.41 µM (inactive) with UO-31.
For `C/C=C\C(CC(=O)O)CN1CCC2=C(C1)C(S(=O)(=O)C(F)(F)F)c1ccccc12` (stereo unspecified), the GI50 in the assay on CCRF-CEM is > 10 µM (inactive); in the assay with HCC 2998 it was > 100 µM (inactive); in the assay on HCT-15, over 100 µM; in the assay on HOP-62, > 100 µM (inactive); with Hs-578T, > 100 µM (inactive); with K562 it was > 100 µM (inactive). Besides, the GI50 in the assay on M14, in the assay with MCF7, with MDA-N, in the assay with NCI-H23, with NCI-H460 and in the assay with OVCAR-8 was > 100 µM (inactive) each time. For the same compound, the GI50 in the assay with RXF 393, with SF-268, in the assay on SK-MEL-28, with SK-OV-3, in the assay with UACC-62 and in the assay with UO-31 was > 100 µM (inactive) in each case.
For the compound `CCOC(=O)N(Cc1cccs1)c1cc(OC)c(OC)c(OC)c1`, the GI50 in the assay with CCRF-CEM is 41 µM (inactive); in the assay with HCC 2998, > 100 µM (inactive); in the assay on HCT-15, 62.4 µM; with HOP-62, > 100 µM (inactive); in the assay with Hs-578T, 86.5 µM (inactive); with K562, 26.2 µM (inactive). In addition, the GI50 in the assay with M14 was > 100 µM (inactive); in the assay with MCF7, 58.2 µM (inactive); with MDA-N it was 28.9 µM (inactive); in the assay on NCI-H23, > 100 µM (inactive); in the assay with NCI-H460, 51.1 µM (inactive); in the assay on OVCAR-8, 90.4 µM (inactive). In addition, the GI50 with RXF 393 was 83 µM (inactive); in the assay with SF-268, > 100 µM (inactive); with SK-MEL-28 it was > 100 µM (inactive); with SN12C, > 100 µM (inactive); in the assay with UACC-62, 40 µM (inactive); with UO-31, 38.4 µM (inactive).
Turning to `CCN(CC)c1nc(N(C)C)c2cc(OC)ccc2n1`, the GI50 in the assay on HCC 2998 is 18.5 µM (inactive); in the assay with HCT-15, 30.6 µM; in the assay on HOP-62, 92.7 µM (inactive); with Hs-578T it was 31.2 µM (inactive); with K562, 20.8 µM (inactive); with M14, 22.7 µM (inactive). The GI50 in the assay on MCF7 is 22.2 µM (inactive); in the assay on MDA-N, 24.7 µM (inactive); with NCI-H23, 29.6 µM (inactive); in the assay with NCI-H460 it was 20 µM (inactive); in the assay on OVCAR-8, 26.2 µM (inactive); in the assay with RXF 393, 24.3 µM (inactive). Moreover, the GI50 in the assay on SF-268 was 25.8 µM (inactive); with SF-539, 21.3 µM (inactive); in the assay with SK-MEL-28, 28.3 µM (inactive); with SN12C, 22.2 µM (inactive); in the assay with UACC-62, 25.8 µM (inactive); with UO-31 it was 19.3 µM (inactive).
In the case of `COc1cc(/C=C/c2nc(N)nnc2C)cc(OC)c1OC`, the GI50 with CCRF-CEM was 6 µM (inactive); with HCC 2998, 9.86 µM (inactive); with HCT-15, 4.04 µM; in the assay with HOP-62, 13 µM (inactive); in the assay on Hs-578T, 11.9 µM (inactive); in the assay on K562, 15.5 µM (inactive). The GI50 was 33.3 µM (inactive) in the assay on M14; 4.8 µM (inactive) with MCF7; 35.2 µM (inactive) with MDA-N; 13.9 µM (inactive) in the assay with NCI-H23; 13.8 µM (inactive) with NCI-H460; 13 µM (inactive) in the assay with OVCAR-8. Moreover, the GI50 in the assay with RXF 393 is 22.9 µM (inactive); in the assay with SF-268 it was 21.5 µM (inactive); with SK-MEL-28 it was 30.1 µM (inactive); in the assay on SK-OV-3 it was 31.5 µM (inactive); in the assay with SN12C, > 70 µM (inactive); with UACC-62, 6.82 µM (inactive). Further, the GI50 with UO-31 is 4.71 µM (inactive).
Consider `COC(=O)c1cc(C)ccc1C1CN=NC12Cc1cccc(C)c1C2=O` (stereo unspecified), for which the GI50 in the assay on CCRF-CEM is 29.3 µM (inactive); with HCC 2998, 37.9 µM (inactive); with HCT-15, 27.6 µM; in the assay on HOP-62 it was 35.6 µM (inactive); in the assay on Hs-578T it was 28.6 µM (inactive); in the assay with K562, 33.3 µM (inactive). The GI50 was 16.7 µM (inactive) in the assay on M14; 30.1 µM (inactive) in the assay with MCF7; 34.8 µM (inactive) with MDA-N; 42.7 µM (inactive) with NCI-H23; 26.2 µM (inactive) in the assay on NCI-H460; 33.1 µM (inactive) with OVCAR-8. For the same compound, the GI50 is 25 µM (inactive) in the assay on RXF 393; 49.7 µM (inactive) in the assay on SF-268; 51.6 µM (inactive) with SF-539; 27.3 µM (inactive) in the assay on SK-MEL-28; 43.9 µM (inactive) with SN12C; 38.9 µM (inactive) with UO-31.
In the case of `O=C1c2cc3ccccc3cc2C2(c3ccc(Cl)cc3)N[C@H]3CCCC[C@@H]3N12` (stereo partly specified), the GI50 in the assay with CCRF-CEM was 48 µM (inactive); in the assay on HCT-15, 21.6 µM; in the assay on HOP-62, 6.79 µM (inactive); in the assay on Hs-578T, 11.7 µM (inactive); in the assay on K562, 26.9 µM (inactive); in the assay on M14, 2.59 µM (inactive). The GI50 in the assay with MCF7 is 24.7 µM (inactive); in the assay with MDA-N it was 18.1 µM (inactive); with NCI-H23, 14.6 µM (inactive); with NCI-H460, 14.9 µM (inactive); in the assay with OVCAR-8 it was 5.77 µM (inactive); in the assay on RXF 393, 9.89 µM (inactive). Also, the GI50 is 16.5 µM (inactive) with SF-268; 10.1 µM (inactive) in the assay on SF-539; 12.3 µM (inactive) in the assay on SK-MEL-28; 14.6 µM (inactive) in the assay with SK-OV-3; 16.6 µM (inactive) with SN12C; 15 µM (inactive) in the assay on UACC-62. Besides, the GI50 in the assay on UO-31 is 18.3 µM (inactive).
Consider `COc1ccc2c(CCN)c(C(=O)O)[nH]c2c1`, for which the GI50 with HCC 2998 is > 100 µM (inactive); in the assay with HCT-15 it was over 100 µM; in the assay on HOP-62 it was > 100 µM (inactive); in the assay with Hs-578T, > 100 µM (inactive); in the assay with K562, > 24.5 µM (inactive); with M14, > 100 µM (inactive). The GI50 in the assay on MCF7, in the assay on MDA-N, in the assay on NCI-H23, with NCI-H460, in the assay on OVCAR-8 and in the assay with RXF 393 was > 100 µM (inactive) each time. Also, the GI50 with SF-268, in the assay with SF-539, with SK-MEL-28, in the assay on SK-OV-3, with SN12C and in the assay on UACC-62 was > 100 µM (inactive) in each case. Also, in the assay on UO-31, the GI50 was > 100 µM (inactive).
For `COC(=O)C(CC(C)C)NC(=O)C(Cc1ccccc1)NC(=O)C1CCCN1C(=O)C(CO)NC(=O)c1ccc(-c2ccc(Cl)cc2Cl)o1` (stereo unspecified) (X38-SPFL-OMe; configuration not given here), the GI50 was 36.8 µM (inactive) in the assay on CCRF-CEM; 13.2 µM (inactive) in the assay with HCC 2998; 24 µM in the assay with HCT-15; 35.5 µM (inactive) in the assay with Hs-578T; 27.8 µM (inactive) with K562; 19.9 µM (inactive) with M14. Besides, the GI50 with MCF7 was 27.5 µM (inactive); in the assay on MDA-N, 35.5 µM (inactive); with NCI-H23, 27.7 µM (inactive); with NCI-H460, 17.3 µM (inactive); in the assay on OVCAR-8, 36.4 µM (inactive); in the assay on RXF 393 it was 17.8 µM (inactive). In addition, the GI50 was 40.3 µM (inactive) in the assay on SF-268; 24.3 µM (inactive) in the assay on SF-539; 52.1 µM (inactive) in the assay with SK-MEL-28; 1.11 µM (active) in the assay on SK-OV-3; 32.1 µM (inactive) with SN12C; 23.8 µM (inactive) with UACC-62. In addition, the GI50 in the assay on UO-31 was 23.9 µM (inactive).
